Source: the supplement of paper PMC10307832

Columns and labels:
Experiment in all cases: relative viability (nuclei count vs DMSO), 5 days (fraction); higher = more cells survive
[1] = tested on: H3255
How it was run: (§1)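 Relative viability divides the nuclei count in treated wells by that in vehicle wells. Lung cancer cell lines were seeded in 1536-well plates, dosed by pin tool the next day, and fixed and stained after 5 days in one step with final 0.05% Triton X-100, 1% formaldehyde and 1 ug/ml Hoechst. Dosing was a single drug or a fixed anchor-drug dose plus five library-drug doses (not always all listed) in √10 steps, and values are medians of duplicate plates imaged at 4×.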

[2] = tested on: NCI-H2087
How it was run: as §1

[3] = tested on: NCI-H1395
How it was run: as §1

[4] = tested on: LC-2-ad
How it was run: as §1

[5] = tested on: NCI-H1944
How it was run: as §1

[6] = tested on: COR-L 105
How it was run: as §1

[7] = tested on: NCI-H661
How it was run: as §1

[8] = tested on: NCI-H1651
How it was run: as §1

[9] = tested on: PC-3 [JPC-3]
How it was run: as §1

[10] = tested on: NCI-H1915
How it was run: as §1

[11] = tested on: NCI-H1437
How it was run: as §1

[12] = tested on: NCI-H2347
How it was run: as §1

[13] = tested on: EMC-BAC-2
How it was run: as §1

[14] = tested on: EKVX
How it was run: as §1

[15] = tested on: NCI-H2085
How it was run: as §1

[16] = tested on: LK-2
How it was run: as §1

[17] = tested on: LXF-289
How it was run: as §1

[18] = tested on: CAL-12T
How it was run: as §1

[19] = tested on: NCI-H1755
How it was run: as §1

[20] = tested on: SK-LU-1
How it was run: as §1

[21] = tested on: SK-MES-1
How it was run: as §1

[22] = tested on: NCI-H1793
How it was run: as §1

[23] = tested on: NCI-H2228
How it was run: as §1

Compound `Cc1cnc(-c2cnc(NCCNc3ccc(C#N)cn3)nc2-c2ccc(Cl)cc2Cl)[nH]1` + CCNC(=O)c1noc(-c2cc(C(C)C)c(O)cc2O)c1-c1ccc(CN2CCOCC2)cc1 [Luminespib] (partner 0.01 µM) has a relative viability ([1]; first compound 0.08 µM) of 0.96, a relative viability ([1]; first compound 0.253 µM) of 0.933 and a relative viability ([1]; first compound 0.8 µM) of 0.977. The relative viability ([1]; first compound 2.53 µM) was 0.835, the relative viability ([2]; first compound 0.08 µM) was 0.128 and the relative viability ([2]; first compound 0.253 µM) was 0.128. For the same compound, the relative viability ([2]; first compound 0.8 µM) was 0.208, the relative viability ([2]; first compound 2.53 µM) was 0.175 and the relative viability ([3]; first compound 0.08 µM) was 0.627. It also gave a relative viability ([3]; first compound 0.253 µM) of 0.708, a relative viability ([3]; first compound 0.8 µM) of 0.65 and a relative viability ([3]; first compound 2.53 µM) of 0.677. The relative viability ([4]; first compound 0.08 µM) was 0.956, the relative viability ([4]; first compound 0.253 µM) was 0.683 and the relative viability ([4]; first compound 2.53 µM) was 0.963. It also gave a relative viability ([5]; first compound 0.08 µM) of 0.831, a relative viability ([5]; first compound 0.8 µM) of 0.861 and a relative viability ([5]; first compound 2.53 µM) of 0.678. The relative viability ([6]; first compound 0.08 µM) was 0.846, the relative viability ([6]; first compound 0.253 µM) was 0.648 and the relative viability ([6]; first compound 0.8 µM) was 0.696. The relative viability ([6]; first compound 2.53 µM) was 0.654, the relative viability ([7]; first compound 0.08 µM) was 0.889 and the relative viability ([7]; first compound 0.253 µM) was 0.881. For the same compound, the relative viability ([7]; first compound 0.8 µM) was 0.904, the relative viability ([7]; first compound 2.53 µM) was 0.829 and the relative viability ([8]; first compound 0.08 µM) was 1.03. For the same compound, the relative viability ([8]; first compound 0.253 µM) was 0.864, the relative viability ([8]; first compound 0.8 µM) was 0.762 and the relative viability ([8]; first compound 2.53 µM) was 0.883. For the same compound, the relative viability ([9]; first compound 0.08 µM) was 0.795, the relative viability ([9]; first compound 0.253 µM) was 0.706 and the relative viability ([9]; first compound 0.8 µM) was 0.675. It also gave a relative viability ([9]; first compound 2.53 µM) of 0.661, a relative viability ([10]; first compound 0.08 µM) of 0.808 and a relative viability ([10]; first compound 0.253 µM) of 0.587. For the same compound, the relative viability ([10]; first compound 0.8 µM) was 0.753, the relative viability ([10]; first compound 2.53 µM) was 0.779 and the relative viability ([11]; first compound 0.08 µM) was 1.06. For the same compound, the relative viability ([11]; first compound 0.253 µM) was 1.06, the relative viability ([11]; first compound 0.8 µM) was 1.14 and the relative viability ([11]; first compound 2.53 µM) was 1.14. It also gave a relative viability ([12]; first compound 0.08 µM) of 0.267, a relative viability ([12]; first compound 0.253 µM) of 0.266 and a relative viability ([12]; first compound 0.8 µM) of 0.346. For the same compound, the relative viability ([12]; first compound 2.53 µM) was 0.518, the relative viability ([13]; first compound 0.08 µM) was 1.25 and the relative viability ([13]; first compound 0.253 µM) was 1.05. The relative viability ([13]; first compound 0.8 µM) was 1.23, the relative viability ([13]; first compound 2.53 µM) was 1.09 and the relative viability ([14]; first compound 0.08 µM) was 0.85. It also gave a relative viability ([14]; first compound 0.253 µM) of 0.824, a relative viability ([14]; first compound 0.8 µM) of 0.911 and a relative viability ([14]; first compound 2.53 µM) of 0.88. For the same compound, the relative viability ([15]; first compound 0.08 µM) was 0.456, the relative viability ([15]; first compound 0.253 µM) was 0.486 and the relative viability ([15]; first compound 0.8 µM) was 0.462. The relative viability ([15]; first compound 2.53 µM) was 0.339, the relative viability ([16]; first compound 0.08 µM) was 0.197 and the relative viability ([16]; first compound 0.253 µM) was 0.227. For the same compound, the relative viability ([16]; first compound 0.8 µM) was 0.239, the relative viability ([16]; first compound 2.53 µM) was 0.205 and the relative viability ([17]; first compound 0.08 µM) was 0.695. The relative viability ([17]; first compound 0.253 µM) was 0.605, the relative viability ([17]; first compound 0.8 µM) was 0.726 and the relative viability ([17]; first compound 2.53 µM) was 0.665. For the same compound, the relative viability ([18]; first compound 0.08 µM) was 0.932, the relative viability ([18]; first compound 0.253 µM) was 0.259 and the relative viability ([18]; first compound 0.8 µM) was 0.387. For the same compound, the relative viability ([18]; first compound 2.53 µM) was 0.242, the relative viability ([19]; first compound 0.08 µM) was 0.614 and the relative viability ([19]; first compound 0.253 µM) was 0.327. It also gave a relative viability ([19]; first compound 0.8 µM) of 0.59, a relative viability ([19]; first compound 2.53 µM) of 0.385 and a relative viability ([20]; first compound 0.08 µM) of 0.196. It also gave a relative viability ([20]; first compound 0.253 µM) of 0.238, a relative viability ([20]; first compound 0.8 µM) of 0.186 and a relative viability ([20]; first compound 2.53 µM) of 0.213. It also gave a relative viability ([21]; first compound 0.08 µM) of 0.859, a relative viability ([21]; first compound 0.253 µM) of 0.757 and a relative viability ([21]; first compound 0.8 µM) of 0.838. It also gave a relative viability ([21]; first compound 2.53 µM) of 0.921, a relative viability ([22]; first compound 0.08 µM) of 0.18 and a relative viability ([22]; first compound 0.253 µM) of 0.173. The relative viability ([22]; first compound 0.8 µM) was 0.147, the relative viability ([22]; first compound 2.53 µM) was 0.201 and the relative viability ([23]; first compound 0.08 µM) was 0.131. The relative viability ([23]; first compound 0.253 µM) was 0.156, the relative viability ([23]; first compound 0.8 µM) was 0.133 and the relative viability ([23]; first compound 2.53 µM) was 0.159.
